Data on two compounds can be found in patent US10143648B2, “Peptide and oside extract of schisandra fruit and improvement in the response of the cutaneous neurosensory system” (LABORATOIRES EXPANSCIENCE, priority 2014, dated 2018).

One assay concerns the target T1, TRPV1 receptor (Homo sapiens, UniProt Q8NER1).
T1 construct: Sensory neurons cultured in the presence of normal human epidermal keratinocytes; endogenous in cells; host or cells: sensory neurons in co-culture with normal human epidermal keratinocytes
Put plainly: Intracytoplasmic calcium mobilization (Fluo-4) in sensory neurons stimulated by capsaicin in co-culture with keratinocytes. The format is cell-based. The following applies: capsaicin 10^-6 M, vs. control. How it is done: Activation of the TRPV1 receptor on sensory neurons can be evaluated by analyzing the electrical activity of sensory neurons by monitoring variations of the cytoplasmic calcium concentration. Indeed, when cells are stimulated by capsaicin, a massive amount of extracellular calcium enters the neuronal cytoplasm in order to trigger electrical activity and to cause a massive release of neuropeptides in the extracellular space. The variation of the level of fluorescence is analyzed by the incorporation of a calcium-dependent fluorescent probe (Fluo-4) in the cells. Thus, during the increase in calcium in the cells, the level of fluorescence increases in the cell body of the neurons. The higher this level, the higher the stimulation of the neurons. Sensory neurons cultured in the presence of normal human epidermal keratinocytes were incubated in the presence of the peptide and oside extract of Schisandra sphenanthera at concentrations of 0.005%, 0.01%, 0.05% and 0.1% (DM) or the reference molecule, capsazepine, at a concentration of 10^−5 M (Sigma). After 60 minutes of pre-incubation, the fluorescent probe, Fluo-4 (Molecular probe), was added to the culture medium and the cells were incubated 30 minutes. […] The significance of the results was confirmed by Bartlett's test.
In general terms: Calcium flux is commonly read through the fluorescence of an indicator in the cells.

The next assay concerns CGRP. Put plainly: CGRP release by sensory neurons stimulated by capsaicin in co-culture with keratinocytes. The format is cell-based. The following applies: 60 min pre-incubation, extract 0.005%-0.1% (DM) or capsazepine 10^-5 M, capsaicin 10^-7 M, 15 min. How it is done:
Sensory neurons were cultured in the presence of normal human epidermal keratinocytes. After 3 days of co-culture, the neurons project extensions in the form of free endings in contact with the keratinocytes. The cells were then incubated in the presence of the peptide and oside extract of Schisandra Sphenanthera at concentrations of 0.005%, 0.01%, 0.05% and 0.1% (DM) or the reference molecule, capsazepine, at a concentration of 10^−5 M (Sigma). After 60 minutes of pre-incubation, the neurons (in co-culture) were stimulated by capsaicin at a concentration of 10^−7 M (Sigma). After 15 minutes of stimulation, the culture supernatants were collected in order to assay the released CGRP. The CGRP assay was carried out using the CGRP assay kit (SpiBio). The significance of the results was confirmed by one-way analysis of variance followed by Dunnett's test.

T1 sequence (Q8NER1 whole entry): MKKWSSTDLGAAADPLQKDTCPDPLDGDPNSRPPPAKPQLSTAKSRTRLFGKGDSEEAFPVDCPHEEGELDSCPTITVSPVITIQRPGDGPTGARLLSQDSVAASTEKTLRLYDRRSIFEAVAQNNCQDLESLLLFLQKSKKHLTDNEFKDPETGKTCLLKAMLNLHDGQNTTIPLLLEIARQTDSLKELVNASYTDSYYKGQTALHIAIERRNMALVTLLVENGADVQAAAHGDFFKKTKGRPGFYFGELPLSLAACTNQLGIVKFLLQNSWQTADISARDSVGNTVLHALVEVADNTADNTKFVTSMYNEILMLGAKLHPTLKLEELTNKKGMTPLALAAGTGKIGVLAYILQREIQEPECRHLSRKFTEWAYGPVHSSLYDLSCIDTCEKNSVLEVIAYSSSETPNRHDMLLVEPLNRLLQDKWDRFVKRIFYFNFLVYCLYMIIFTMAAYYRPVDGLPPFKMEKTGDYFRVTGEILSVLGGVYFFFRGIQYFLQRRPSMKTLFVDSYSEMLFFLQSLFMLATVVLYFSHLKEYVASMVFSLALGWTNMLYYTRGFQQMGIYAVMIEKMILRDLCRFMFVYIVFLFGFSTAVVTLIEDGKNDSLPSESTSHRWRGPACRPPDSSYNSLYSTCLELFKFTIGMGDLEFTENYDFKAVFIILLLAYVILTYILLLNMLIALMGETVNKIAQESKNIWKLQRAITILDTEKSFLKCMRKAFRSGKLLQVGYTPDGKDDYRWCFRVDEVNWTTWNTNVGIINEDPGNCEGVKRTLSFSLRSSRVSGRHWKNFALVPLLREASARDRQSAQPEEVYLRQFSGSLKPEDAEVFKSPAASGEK

`COc1cc(CNC(=O)CCCC/C=C/C(C)C)ccc1O` [capsaicin]: on TRPV1 receptor, the “level of fluorescence (quantity of intracytoplasmic calcium) after addition of the stimulus” value is recorded as “significant increase in the level of fluorescence”.

As for `Oc1cc2c(cc1O)CN(C(=S)NCCc1ccc(Cl)cc1)CCC2` [capsazepine], in the assay on CGRP, the “release of CGRP induced by capsaicin” value was “inhibitory effect”.
